US10022461B2, “Pyrrolo[2,3-C]pyridines as imaging agents for neurofibrilary tangles” (MERCK SHARP & DOHME CORP., priority 2014, dated 2018)
pKi: −log10 of the molar value.

Molecular target: tau (Homo sapiens, UniProt P10636)
Experiment: displacement tau binding assay in AD brain homogenates with [^3H]-6
Conditions: Table 1, displacement of [^3H]-6 (0.25 nM)
Protocol: The frozen human brain samples of Alzheimer's disease (AD) were purchased from Analytic Biological Services Inc. They were postmortem tissue from donors with clinical diagnosis of AD. As much of the white matter was dissected out of the frontal cortex in order to enrich the tissue preparations for gray matter. Brain homogenates of gray matter enriched frontal cortex were prepared by homogenizing the tissue in ice cold Phosphate Buffered Saline (PBS), pH 7.4 at 80 mg wet weight tissue per 1 mL for 45 seconds at 4° C. on setting 16 of Polytron. The homogenate was further diluted with ice cold PBS to 30 mg wet weight tissue per 1 mL and homogenized for an additional minute as described above. Homogenates were aliquoted in 5 ml/tube and store at −70° C. until use. […] Brain homogenates were diluted to 0.5 mg/mL from original 30 mg/mL volume in Assay Buffer, and 200 μl were added to the assay plate for a final concentration of 100 μg wet weight/assay tube. [^3H]-6 was prepared at […] final concentration in Assay Buffer plus 20% DMSO and 25 μl was added to the assay plate for final assay concentration of 0.25 nM. The assay plate was incubated at room temperature (25° C.) for 90 minutes. […] Filter plates were dried for 1 hour in a vacuum oven and 50 μl/well MicroScint-20 were added. Plates were counted 1 min per well by Packard Topcount. Total amount of radioligand used in the assay was determined by counting 25 μl of 10× ligand stock. […] Tau Ki data for representative compounds of the invention are found in Table 1.

tau, sequence (P10636 2-758 limits assumed): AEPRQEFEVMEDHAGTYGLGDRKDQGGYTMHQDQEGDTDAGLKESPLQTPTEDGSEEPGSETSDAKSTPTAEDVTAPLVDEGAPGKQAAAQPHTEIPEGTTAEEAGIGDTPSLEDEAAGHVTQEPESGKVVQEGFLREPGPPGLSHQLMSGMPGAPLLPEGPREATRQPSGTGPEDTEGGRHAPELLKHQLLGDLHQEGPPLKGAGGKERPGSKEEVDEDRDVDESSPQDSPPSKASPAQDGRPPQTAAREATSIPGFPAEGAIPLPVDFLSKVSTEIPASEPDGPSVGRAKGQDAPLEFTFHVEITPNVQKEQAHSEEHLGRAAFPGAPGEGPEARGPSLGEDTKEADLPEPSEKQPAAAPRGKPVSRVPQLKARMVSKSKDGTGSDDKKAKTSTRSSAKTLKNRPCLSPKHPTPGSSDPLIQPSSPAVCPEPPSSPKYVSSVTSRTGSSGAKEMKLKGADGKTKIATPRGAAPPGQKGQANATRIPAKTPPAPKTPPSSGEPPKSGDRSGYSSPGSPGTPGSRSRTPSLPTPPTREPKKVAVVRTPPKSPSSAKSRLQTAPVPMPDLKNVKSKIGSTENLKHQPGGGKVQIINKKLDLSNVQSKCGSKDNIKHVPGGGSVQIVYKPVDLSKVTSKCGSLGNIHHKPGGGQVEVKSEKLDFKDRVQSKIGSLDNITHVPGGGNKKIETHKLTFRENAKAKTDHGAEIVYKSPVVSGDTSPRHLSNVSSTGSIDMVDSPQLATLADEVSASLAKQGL

Row | Compound | pKi
1 | CN(CCF)c1ccc2cnc(-n3ccc4ccncc43)cc2c1 [Compound 14, N-(2-fluoroethyl)-N-methyl-3-(1H-pyrrolo[2,3-c]pyridin-1-yl)isoquinolin-6-amine] | 8.64
2 | Fc1cc2ccn(-c3cc4ccccc4cn3)c2cn1 [Compound 38, 3-(5-fluoro-1H-pyrrolo[2,3-c]pyridin-1-yl)isoquinoline] | 7.28
3 | c1cc2ccn(-c3cc4cc[nH]c4cn3)c2cn1 [Compound 8, 1-(1H-pyrrolo[2,3-c]pyridin-5-yl)-1H-pyrrolo[2,3-c]pyridine] | 9.32
4 | OC1CCN(c2ccc(-n3ccc4ccncc43)nc2)CC1 [Compound 42, 1-(6-(1H-pyrrolo[2,3-c]pyridin-1-yl)pyridin-3-yl)piperidin-4-ol] | 7.15
5 | c1ccc2cc(-n3ccc4ccncc43)ncc2c1 [Compound 6, 3-(1H-pyrrolo[2,3-c]pyridin-1-yl)isoquinoline] | 9.27
6 | Fc1cc(-c2ccc(-n3ccc4ccncc43)nc2)ccn1 [Compound 44, 1-(6′-fluoro-3,4′-bipyridin-6-yl)-1H-pyrrolo[2,3-c]pyridine] | 8.95
7 | Oc1cccc2cnc(-n3ccc4ccncc43)cc12 [Compound 49] | 9.17
8 | FCOc1ccc2cnc(-n3ccc4ccncc43)cc2c1 [Compound 57] | 8.91
9 | Fc1ccc2cnc(-n3ccc4ccncc43)cc2n1 [Compound 40, 2-fluoro-7-(1H-pyrrolo[2,3-c]pyridin-1-yl)-1,6-naphthyridine] | 7.28
10 | Cn1cnc(-c2ccc(-n3ccc4ccncc43)nc2)c1 [Compound 65] | 8.47
11 | Fc1cccc2cnc(-n3ccc4ccncc43)cc12 [Compound 54] | 8.98
12 | Fc1ccc2cnc(-n3ccc4ccncc43)cc2c1 [Compound 9, 6-fluoro-3-(1H-pyrrolo[2,3-c]pyridin-1-yl)isoquinoline] | 9.66
13 | Cc1cc2cnc(-n3ccc4ccncc43)cc2o1 [Compound 23, 2-methyl-6-(1H-pyrrolo[2,3-c]pyridin-1-yl)furo[3,2-c]pyridine] | 8.68
14 | FCOc1cccc2cc(-n3ccc4ccncc43)ncc12 [Compound 55] | 8.94
15 | Nc1ccc2cc(-n3ccc4ccncc43)ncc2c1 [Compound 12, 3-(1H-pyrrolo[2,3-c]pyridin-1-yl)isoquinolin-7-amine] | 9.54
16 | FCCOc1ccc2nc(-n3ccc4ccncc43)ncc2c1 [Compound 69] | 8.03
17 | CNc1cccc(-c2ccc(-n3ccc4ccncc43)nc2)c1 [Compound 72] | 9.12
18 | C=Cc1cc(-n2ccc3ccncc32)ncc1C#CCF [Compound 30, 1-(5-(3-fluoroprop-1-ynyl)-4-vinylpyridin-2-yl)-1H-pyrrolo[2,3-c]pyridine] | 8.61
19 | CC#Cc1cnc(-n2ccc3ccncc32)cc1CF [Compound 21, 1-(4-(fluoromethyl)-5-(prop-1-ynyl)pyridin-2-yl)-1H-pyrrolo[2,3-c]pyridine] | 8.39
20 | Nc1ccc(-c2ccc(-n3ccc4ccncc43)nc2)cn1 [Compound 100] | 8.97
21 | ClCCC1CCN(c2ccc(-n3ccc4ccncc43)nc2)CC1 [Compound 31, 1-(5-(4-(2-chloroethyl)piperidin-1-yl)pyridin-2-yl)-1H-pyrrolo[2,3-c]pyridine] | 8.54
22 | C#Cc1cnc(-n2ccc3ccncc32)cc1C [Compound 50] | 9.12
23 | Cn1ccc2cc(-n3ccc4ccncc43)ncc21 [Compound 19, 1′-methyl-1,5′-bi(1H-pyrrolo[2,3-c]pyridine)] | 9.21
24 | Oc1ccc2nc(-n3ccc4ccncc43)ncc2c1 [Compound 24-5, 2-(1H-pyrrolo[2,3-c]pyridin-1-yl)quinazolin-6-ol] | 7.95
25 | FCCOc1cccc2cc(-n3ccc4ccncc43)ncc12 [Compound 67] | 8.17
26 | Nc1cccc2cc(-n3ccc4ccncc43)ncc12 [Compound 59] | 9.48

Same assay, conditions: Table 2, displacement of [^3H]-6 (0.25 nM)

Row | Compound | pKi
27 | Nc1cc(F)c2cc(-n3ccc4ccncc43)ncc2c1 [Compound 114] | 9.31
28 | Nc1ccc(F)c2cnc(-n3ccc4ccncc43)cc12 [Compound 116] | 8.89
29 | Nc1cc(F)c2cnc(-n3ccc4ccncc43)cc2c1 [Compound 113] | 9.11
30 | COc1cc2ccn(-c3cc4cc(F)ccc4cn3)c2cn1 [Compound 130] | 8.39
31 | Nc1cc(I)cc2cc(-n3ccc4ccncc43)ncc12 [Compound 124] | 8.97
32 | Nc1cc2cnc(-n3ccc4ccncc43)cc2cc1F [Compound 105, 6-fluoro-3-(1H-pyrrolo[2,3-c]pyridin-1-yl)isoquinolin-7-amine] | 9.42
33 | Nc1ccc2cnc(-n3ccc4ccncc43)cc2c1I [Compound 118] | 7.61
34 | Nc1ccc2cc(-n3ccc4ccncc43)ncc2c1I [Compound 122] | 8.75
35 | Nc1ccc2cc(-n3ccc4ccncc43)ncc2c1F [Compound 108] | 9.17
